Legend:
Type in all cases: cell-based
[1] = system: human acute lymphocytic leukemia taxol-resistant cell strain CCRF-CEM/T; experiment: growth inhibition on CCRF-CEM/T in vitro (MTT); settings: CCRF-CEM-T cells, 72 h
Method: (§1) Human pancreatic cancer AsPC-1; human acute lymphocytic leukemia taxol-resistant cell strain CCRF-CEM/T; human adenocarcinoma of lung NCI-H1975; human pharyngeal squamous cell carcinoma Fadu; human B lymphoma BA25; human B lymphoma BA91; human B lymphoma BA127; human stomach cancer NCI-N87; human non-small cell lung cancer A549; human liver cancer SK-Hep-1; human lung cancer NCI-H460; human prostate cancer PC-3.
(§2) The cells were cultured under the following conditions:
(§3) complete medium: 90% RPMI1640, 10% FBS; 37° C., 5% CO2, saturated humidity.
(§4) After cultured to the end of the logarithmic growth phase, the cells were diluted with the complete medium to the required concentration.
(§5) The cells were seeded in a 96-well microplate at a suitable concentration (CCRF-CEM/T: 20000 cells/well; BA25: 20000 cells/well; BA91: 60000 cells/well; BA127: 60000 cells/well).
(§6) A 2 mM stock solution was prepared by dissolving test compounds in DMSO, diluted with a base medium (without serum) to form a 20 μM or 2 μM 10× working solution which was diluted using a gradient of 1/3. During dilution, the concentration of DMSO was kept consistent. There were 8 dose groups in total. 12 μl of 10× compound working solution was added to the experimental well until the final volume of each well was 120 μl and the concentration of DMSO was 1‰. Meanwhile, a solvent control group without compounds (PC) and a solvent control group without cells and compounds (NC) were prepared. The cells were further cultured for 72 h.
(§7) Subsequently, the activity of cells was measured with a microculture tetrozolium (MTT method). Specifically, 30 μl/well of PBS containing 2.5 mg/ml MTT was added, and then the cells were cultured for another 3 h. 100 μl/well of triple lysis buffer (10% SDS, 5% isobutanol, 0.012 M HCl) was added, and the mixture was kept at room temperature to dissolve MTT crystal. OD value at 570 nm was measured with an ELISA analyzer.
(§8) Inhibition rate of a compound was calculated as follows:
(§9) Inhibition rate=[1−(OD value of administration group−OD value of NC)/(OD value of PC−OD value of NC)]×100%
(§10) Inhibition rates were then plotted versus the logarithm of compound concentrations, and fitted with Logistic 4 parameter equation. The compound concentration corresponding to 50% inhibition rate in the curve was IC50 value.

[2] = system: Human pancreatic cancer AsPC-1; experiment: growth inhibition on AsPC-1 in vitro (MTT); settings: ASPC1, Aspc-1 cells, 72 h
Method: as §1
(§11) The following cells were cultured under the following conditions, respectively:
(§12) 37° C., 5% CO2, saturated humidity.
(§13) The cells were cultured until confluence, digested with a pancreatic enzyme, and prepared into a single cell suspension in a complete medium.
(§14) The cells were seeded in a 96-well microplate at a suitable concentration (AsPC-1: 8000 cells/well; NCI-H1975: 5000 cells/well; Fadu: 6000 cells/well; NCI-N87: 15000 cells/well), cultured overnight to render them adherent to the bottom.
as §6, with “in total. 20 μl of” for “in total. 12 μl of”, “well was 200 μl and” for “well was 120 μl and”, “control group (PC) without compounds” for “control group without compounds”
(§15) Subsequently, the activity of cells was measured with a microculture tetrozolium (MTT method). Specifically, the medium in well was sucked out, a base medium containing 0.5 mg/ml MTT was added in an amount of 100 μl/well, and then the cell was further cultured for 3 h. The medium containing MTT was once again sucked out, 100 μl/well of DMSO was added to dissolve MTT crystal, and OD value at 490 nm was measured with an ELISA analyzer.
(§16) Inhibition rate of a compound was calculated as follows: Inhibition rate=[1−(OD value of administration group−OD value of NC)/(OD value of PC−OD value of NC)]×100%
as §10

[3] = system: human B lymphoma BA25; experiment: growth inhibition on BA25 in vitro (MTT); settings: BA25 cells, 72 h
Method: as §1, §2, §3, §4, §5, §6, §7, §8, §9, §10

[4] = system: human B lymphoma BA127; experiment: growth inhibition on BA127 in vitro (MTT); settings: BA127 cells, 72 h
Method: as §1, §2, §3, §4, §5, §6, §7, §8, §9, §10

[5] = system: human pharyngeal squamous cell carcinoma Fadu; experiment: growth inhibition on FaDu in vitro (MTT); settings: FaDu cells, 72 h
Method: as §1, §11, §12, §13, §14
as §6, with “in total. 20 μl of” for “in total. 12 μl of”, “well was 200 μl and” for “well was 120 μl and”, “control group (PC) without compounds” for “control group without compounds”
as §15, §16, §10

[6] = system: human B lymphoma BA91; experiment: growth inhibition on BA91 in vitro (MTT); settings: BA91 cells, 72 h
Method: as §1, §2, §3, §4, §5, §6, §7, §8, §9, §10

[7] = system: human lung cancer NCI-H460; experiment: growth inhibition on NCI-H460 in vitro; settings: NCI-H460 cells, read-out: growth inhibition effects IC50 (nM) NCI-H460
Source text: as §1

[8] = system: human non-small cell lung cancer A549; experiment: growth inhibition on A549 in vitro; settings: A549 cells, read-out: growth inhibition effects IC50 (nM) A549
Source text: as §1

[9] = system: human adenocarcinoma of lung NCI-H1975; experiment: growth inhibition on NCI-H1975 in vitro (MTT); settings: NCI-H1975 cells, 72 h, read-out: growth inhibition effects IC50 (nM) NCI-H1975
Method: as §1, §11, §12, §13, §14
as §6, with “in total. 20 μl of” for “in total. 12 μl of”, “well was 200 μl and” for “well was 120 μl and”, “control group (PC) without compounds” for “control group without compounds”
(§17) Subsequently, the activity of cells was measured with a microculture tetrozolium (MTT method). […] The medium containing MTT was once again sucked out, 100 μl/well of DMSO was added to dissolve MTT crystal, and OD value at 490 nm was measured with an ELISA analyzer.
(§18) Inhibition rate of a compound was calculated as follows: Inhibition rate=[1−(OD value of administration group−OD value of NC)/(OD value of PC−OD value of NC)]×100% […]

[10] = system: human liver cancer SK-Hep-1; experiment: growth inhibition on SK-Hep-1 in vitro; settings: SK-HEP1, SK-Hep-1 cells, read-out: growth inhibition effects IC50 (nM) SK-Hep-1
Source text: as §1

[11] = system: human prostate cancer PC-3; experiment: growth inhibition on PC-3 in vitro; settings: PC-3 cells, read-out: growth inhibition effects IC50 (nM) PC-3
Source text: as §1

[12] = system: human stomach cancer NCI-N87; experiment: growth inhibition on NCI-N87 in vitro (MTT); settings: NCI-N87 cells, 72 h, read-out: growth inhibition effects IC50 (nM) NCI-N87
Method: as §1, §11, §12, §13, §14
as §6, with “in total. 20 μl of” for “in total. 12 μl of”, “well was 200 μl and” for “well was 120 μl and”, “control group (PC) without compounds” for “control group without compounds”
as §17, §18

IC50 [1] [nM] | IC50 [2] [nM] | IC50 [3] [nM] | IC50 [4] [nM] | IC50 [5] [nM] | IC50 [6] [nM] | IC50 [7] [nM] | IC50 [8] [nM] | IC50 [9] [nM] | IC50 [11] [nM] | IC50 [12] [nM] | Structure (SMILES) | IC50 [10] [nM]
6.3 | 7.2 | – | – | – | – | – | – | – | – | – | N#C/N=C(\NCCCCCCOc1ccccc1Cl)Nc1ccncc1 [Control 3, N-cyano-N′-(6-(2-chlorophenoxy)hexyl)-N″-(4-pyridyl) guanidine, reference compound] | –
5.1 | – | 6.3 | 6.9 | 4.7 | 5.8 | – | – | – | – | – | N#C/N=C(\NCCCCCCOc1ccc(Br)cc1OC(F)(F)F)Nc1ccncc1 [Example 7, N-cyano-N′-(6-(2-trifluoromethoxy-4-bromophenoxy)hexyl)-N″-(4-pyridyl)guanidine] | –
– | – | 7.3 | 6.1 | – | 6.9 | – | – | – | – | – | N#C/N=C(\NCCCCCOc1ccccc1OC(F)(F)F)Nc1ccncc1 [Example 5, N-cyano-N′-(5-(o-trifluoromethoxyphenoxy)pentyl)-N″-(4-pyridyl) guanidine] | –
1.6 | 2.1 | 1 | 1.5 | 1.5 | 1.5 | 8 | 3 | 5.3 | 0.2 | 1.5 | N#C/N=C(\NCCCCCCOc1ccccc1OC(F)(F)F)Nc1ccncc1 [Example 11, N-cyano-N′-(6-(o-trifluoromethoxyphenoxy)hexyl)-N″-(4-pyridyl) guanidine] | 2.3
6.9 | 7.3 | – | – | – | – | 38 | 9.9 | 15.5 | 2.4 | 6.6 | COc1ccccc1OCCCCCCN/C(=N\C#N)Nc1ccncc1 [Control 4, N-cyano-N′-(6-(2-methoxyphenoxy)hexyl)-N″-(4-pyridyl) guanidine] | –
– | – | 5.6 | 9.3 | – | 9.6 | – | – | – | – | – | N#C/N=C(\NCCCCCCCCOc1ccccc1OC(F)(F)F)Nc1ccncc1 [Example 6, N-cyano-N′-(8-(o-trifluoromethoxyphenoxy)octyl)-N″-(4-pyridyl) guanidine] | –
– | – | 4.4 | 4.3 | – | 2.7 | – | – | – | – | – | N#C/N=C(\NCCCCCCOc1ccccc1OC(F)(F)F)Nc1cccnc1 [Example 2, N-cyano-N′-(6-(o-trifluoromethoxyphenoxy)hexyl)-N″-(3-pyridyl) guanidine] | –
2.3 | 2.3 | – | 3.2 | 2.8 | < 1 | – | – | – | – | – | N#C/N=C(\NCCCCCCOc1ccc(Cl)cc1OC(F)F)Nc1ccncc1 [Example 12, N-cyano-N′-(6-(2-difluoromethoxy-4-chlorophenoxy)hexyl)-N″-(4-pyridyl)guanidine] | –
2.2 | 0.9 | – | 1.3 | 1.3 | < 1 | – | – | – | – | – | Cc1ccc(OC(F)F)c(OCCCCCCN/C(=N\C#N)Nc2ccncc2)c1 [Example 16, N-cyano-N′-(6-(5-methyl-2-difluoromethoxyphenoxy)hexyl)-N″-(4-pyridyl)guanidine] | –
– | – | 12 | – | – | – | – | – | – | – | – | N#C/N=C(\NCCCCCCOc1ccc(OC(F)(F)F)cc1)Nc1ccncc1 [Example 4, N-cyano-N′-(6-(p-trifluoromethoxyphenoxy)hexyl)-N″-(4-pyridyl) guanidine] | –
2.2 | – | – | 1.4 | 1.2 | 2 | – | – | – | – | – | N#C/N=C(\NCCCCCCOc1cc(Cl)ccc1OC(F)F)Nc1ccncc1 [Example 1, N-cyano-N′-(6-(2-difluoromethoxy-5-chlorophenoxy)hexyl)-N″-(4-pyridyl) guanidine] | –
113 | 135 | – | – | – | – | – | – | – | – | – | COc1ccccc1OCCCCCN/C(=N\C#N)Nc1ccncc1 [Control 1, N-cyano-N′-(5-(o-methoxyphenoxy)pentyl)-N″-(4-pyridyl) guanidine, reference compound] | –
– | – | – | 13 | 2.4 | 3.5 | – | – | – | – | – | CC(C)(C)c1ccc(OC(F)F)c(OCCCCCCN/C(=N\C#N)Nc2ccncc2)c1 [Example 10, N-cyano-N′-(6-(2-difluoromethoxy-5-tert-butylphenoxy)hexyl)-N″-(4-pyridyl)guanidine] | –

Structure (SMILES) | IC50 [1] [nM] | IC50 [2] [nM] | IC50 [3] [nM] | IC50 [4] [nM] | IC50 [5] [nM] | IC50 [6] [nM] | IC50 [7] [nM] | IC50 [8] [nM] | IC50 [9] [nM] | IC50 [11] [nM] | IC50 [12] [nM] | IC50 [10] [nM]
N#C/N=C(\NCCCCCCOc1ccc(Cl)cc1)Nc1ccncc1 [Control 2, N-cyano-N′-(6-(4-chlorophenoxy)hexyl)-N″-(4-pyridyl) guanidine] | 22 | 19 | – | – | 11.7 | – | 83 | 22 | 54 | 2.5 | 14 | 16

Reference: US8604065B2, “Pyridyl cyanoguanidine derivatives” (priority 2010, dated 2013)
